Measurements reported in ChEMBL document CHEMBL1201862, “PubChem BioAssay data set” (2004).
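Five compound concentrations were applied to cells in 96-well plates for 48 hours; endpoints were derived by simple linear interpolation of the resulting dose-response curve. GI50: concentration for 50% inhibition of growth.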 Active and inactive are the calls of the source. No stated cut-off is given here; in the data, active = GI50 up to about 1.1 µM and inactive = higher. Where a SMILES comes first, the peptide text is derived from it. The star is where a group is joined. Boc = CC(C)(C)OC(=O)*; OBn = c1ccc(CO*)cc1

Experiments:
Test in all cases: growth of human tumour cells (NCI), 48 h
[1] = tested on: BT-549
[2] = tested on: CAKI-1
[3] = tested on: HOP-92
[4] = tested on: HT-29
[5] = tested on: Hs-578T
[6] = tested on: IGROV-1
[7] = tested on: K562
[8] = tested on: MDA-N
[9] = tested on: NCI-H226
[10] = tested on: NCI-H23
[11] = tested on: NCI-H460
[12] = tested on: NCI-H522
[13] = tested on: OVCAR-3
[14] = tested on: PC-3
[15] = tested on: SF-295
[16] = tested on: SF-539
[17] = tested on: SN12C
[18] = tested on: TK-10
[19] = tested on: UACC-62
[20] = tested on: UO-31

Measured: GI50

CC(NC(=O)C(Cc1ccccc1)NC(=O)C(Cc1ccccc1)NC(=O)OC(C)(C)C)C(=O)OCc1ccccc1 (stereo not drawn) (Boc-Phe-Phe-Ala-OBn; configuration not given here)
inactive: [1] > 100 µM | [2] > 10 µM | [3] 20.4 µM | [4] 75.9 µM | [5] 73.3 µM | [6] > 100 µM | [7] 64.3 µM | [8] > 100 µM | [9] 6.05 µM | [10] > 100 µM | [11] > 100 µM | [12] 68.1 µM | [13] > 100 µM | [14] 68.7 µM | [15] 43.5 µM | [16] 37.9 µM | [17] > 100 µM | [18] 76.2 µM | [19] 49.4 µM | [20] 27.7 µM

Cn1c(=O)c2c(nc3n(CC(O)CCl)c(=O)ccn23)n(C)c1=O (configuration not stated)
inactive: [1] > 100 µM | [2] 17 µM | [3] 45.9 µM | [4] 30.8 µM | [5] 41.4 µM | [6] 20.8 µM | [7] 39.2 µM | [8] 35.2 µM | [9] 22.6 µM | [10] 42.7 µM | [11] 29.9 µM | [12] 16.6 µM | [13] 77.1 µM | [14] > 100 µM | [15] 47.5 µM | [16] 46.7 µM | [17] 18.3 µM | [18] 89.3 µM | [19] 36.5 µM | [20] 37.5 µM

CC1(C)CC2=C(Sc3ccccc3N2)C(=O)C1C(=O)C(=O)Nc1cc(Cl)ccc1Cl (configuration not stated)
inactive: [1] > 100 µM | [2] > 100 µM | [3] > 100 µM | [4] 77.6 µM | [5] > 100 µM | [6] > 100 µM | [7] > 100 µM | [8] > 100 µM | [9] > 100 µM | [10] > 100 µM | [11] 14.9 µM | [12] > 100 µM | [13] > 100 µM | [14] 84.5 µM | [15] > 100 µM | [16] > 100 µM | [17] > 100 µM | [19] > 100 µM | [20] > 100 µM

Cc1cc[n+]2c(c1)-c1cc(C)cc[n+]1CC2
inactive: [1] > 100 µM | [2] > 100 µM | [3] > 100 µM | [4] 34.7 µM | [5] > 100 µM | [6] 51.2 µM | [7] > 100 µM | [8] > 100 µM | [9] > 100 µM | [10] 84.5 µM | [11] > 100 µM | [12] 29.4 µM | [13] 45.2 µM | [14] > 76.7 µM | [15] > 100 µM | [16] > 100 µM | [17] 89.9 µM | [18] > 100 µM | [19] > 100 µM | [20] > 100 µM

COn1cc(C=O)c2ccccc21
inactive: [1] > 100 µM | [2] 28.7 µM | [3] > 68.9 µM | [4] > 56.6 µM | [5] 37.4 µM | [6] > 62.8 µM | [7] 53.5 µM | [8] 23.6 µM | [9] > 20.2 µM | [10] > 100 µM | [11] 35.1 µM | [12] 38.6 µM | [13] 36.6 µM | [14] > 74.1 µM | [15] 44.1 µM | [16] > 45.6 µM | [17] > 80.4 µM | [18] > 54.3 µM | [19] 41 µM | [20] 61.2 µM

COc1ccc(-c2cc(-c3ccc(Nc4ccnc5cc(C(F)(F)F)ccc45)cc3)[nH]c(=O)c2C#N)c2ccccc12
inactive: [1] > 58.5 µM | [2] > 100 µM | [3] > 100 µM | [4] > 25.7 µM | [5] 35.7 µM | [6] > 100 µM | [7] > 100 µM | [8] > 38.4 µM | [9] > 55.3 µM | [10] 39.5 µM | [11] > 100 µM | [12] > 100 µM | [13] 38.7 µM | [14] > 100 µM | [15] 25.8 µM | [16] 16.6 µM | [17] > 100 µM | [18] 26.9 µM | [19] 88.5 µM | [20] > 35.6 µM

NN=C(CC(O)(C(F)(F)Cl)C(F)(F)Cl)CC(O)(C(F)(F)Cl)C(F)(F)Cl
inactive: [1] > 10 µM | [2] > 10 µM | [3] > 10 µM | [4] > 10 µM | [5] > 10 µM | [6] > 10 µM | [7] > 10 µM | [8] > 10 µM | [9] > 10 µM | [10] > 10 µM | [11] > 10 µM | [12] > 10 µM | [13] > 10 µM | [14] > 10 µM | [15] > 10 µM | [16] > 10 µM | [17] > 10 µM | [18] > 10 µM | [19] > 10 µM

O=C(C(Cl)=C(N1CCOCC1)N1CCOCC1)C(Cl)Cl
inactive: [1] > 100 µM | [2] > 100 µM | [3] > 100 µM | [4] > 100 µM | [5] > 100 µM | [6] > 100 µM | [7] > 100 µM | [8] > 100 µM | [9] > 100 µM | [10] > 100 µM | [11] > 100 µM | [12] > 100 µM | [13] > 100 µM | [14] > 100 µM | [16] > 100 µM | [17] > 100 µM | [18] > 100 µM | [19] > 100 µM | [20] > 100 µM

COC(=O)C(Cc1ccccc1)OC(=O)C(N)CC(=O)O (configuration not stated)
inactive: [1] > 100 µM | [2] > 100 µM | [3] > 100 µM | [4] > 100 µM | [5] > 100 µM | [6] > 100 µM | [7] > 100 µM | [8] > 100 µM | [9] > 100 µM | [10] 5.11 µM | [11] > 100 µM | [12] > 100 µM | [13] > 100 µM | [14] > 100 µM | [15] > 100 µM | [16] > 100 µM | [17] > 100 µM | [18] > 100 µM | [19] > 100 µM | [20] > 100 µM

CC1(C)C(=O)/C(=C/c2ccccc2)C(C)(C)C1(C)C
inactive: [1] 36.1 µM | [2] 49.1 µM | [3] > 40 µM | [4] 40.1 µM | [5] 40.6 µM | [6] 60.1 µM | [7] 35.2 µM | [8] 39.1 µM | [9] > 100 µM | [10] 70.6 µM | [11] 62.7 µM | [12] 63.2 µM | [13] > 39.3 µM | [14] 53.7 µM | [15] > 100 µM | [16] > 100 µM | [17] 50.8 µM | [18] 46.6 µM | [19] 54.1 µM | [20] 52.6 µM
